Experimental data as given in PMC10761933, “Acquired and intrinsic resistance to vemurafenib in BRAF^V600E ‐driven melanoma brain metastases” (FEBS Open Bio, 2023).

Legend:
intracranial A375 tumors = assay: Immunohistochemical analysis of vemurafenib‐resistant A375 melanoma brain metastases; format: in vivo; conditions: Abcb1a/b;Abcg2−/− mice, 10 mg·kg^−1 × 10d, vs untreated
Procedure: Mouse brains were fixed in 4% (v/v) formaldehyde. Alternatively, whole heads without skin were fixed in 4% (v/v) formaldehyde and 5% (v/v) glacial acetic acid and subsequently decalcified using a 6.5% (v/v) formic acid solution for 3 days at 37 °C. After fixation, samples were paraffin embedded and sliced into 4 μm thick sections. Whole head slides were stained for hematoxylin and eosin (H&E), human vimentin (1 : 4000; M0725; DakoCytomation, Glostrup, Denmark), P‐gp (1 : 200; 13978; Cell Signaling Technology, Danvers, MA, USA), BCRP (1 : 400; ab24115; Abcam, Cambridge, UK), and CD31 (1 : 200; ab28364; Abcam). Vessel positivity for P‐gp, BCRP, and CD31, as quantified in Fig. 1B, was manually scored in at least 200 vessels per staining. Specific antibody staining for P‐gp and BCRP was validated previously using whole head slices from Abcb1a/b;Abcg2 ^ −/− mice (fig. S2 from).
Brain slides were stained for H&E, PDGFRβ (1 : 50; 3169; Cell Signaling Technology), phospho‐MET (1 : 150; 3077; Cell Signaling Technology), MET (1 : 100; AF527; R&D Systems, Minneapolis, MN, USA), phospho‐IGF1R (1 : 40 000; sc‐101703; Santa Cruz Biotechnology, Dallas, TX, USA), AXL (1 : 100; 8661; Cell Signaling Technology), NGFR (1 : 400; 8238; Cell Signaling Technology), phospho‐EGFR (1 : 600; ab40815; Abcam), EGFR (1 : 200; ab52894; Abcam), BRAF^V600E (1 : 100; E19290; SpringBioscience, Pleasanton, CA, USA), phospho‐ERK1/2 (1 : 200; 4370; Cell Signaling Technology), phospho‐AKT (1 : 8000; 4060; Cell Signaling Technology), phospho‐S6 (1 : 1000; 2211; Cell Signaling Technology), phospho‐4EBP1 (1 : 100; 2855; Cell Signaling Technology), 4EBP1 (1 : 1200; 9644; Cell Signaling Technology), SOX10 (1 : 100; sc‐17342; Santa Cruz Biotechnology), MITF (1 : 100; 284 M‐94; Cell Marque, Rocklin, CA, USA), and Ki‐67 (1 : 3000; ab15580; Abcam).

[1] = Vemurafenib distribution in plasma, brain regions and tumor of A375 tumor‐bearing mice (LC–MS/MS); format: in vivo; conditions: for discrepancy in plasma concentration vs the previous pharmacokinetic experiment: 4 h after third daily administration
Procedure: To study its distribution in tumor‐bearing mice, vemurafenib was administered p.o. to tumor‐bearing mice for 3 days at a dose of 10 or 25 mg·kg^−1 q.d., starting 14 days after intracranial tumor cell injection. One group of mice received 10 mg·kg^−1 vemurafenib 4 h after administration of 100 mg·kg^−1 elacridar. Four hours after the third administration, blood was collected by heart puncture, and whole brains were dissected and divided into four parts: ipsilateral hemisphere (tissue from the tumor‐bearing hemisphere that was free of macroscopic tumor tissue), contralateral hemisphere (the tumor‐free hemisphere), cerebellum and macroscopic tumor. In a follow‐up experiment, tissues and plasma were collected 4 h after 5 and 10 consecutive daily p.o. administrations of vemurafenib. All tissues were weighed and subsequently homogenized using a FastPrep®‐24 (MP‐Bio‐medicals, Irvine, CA, USA) in 3 mL 1% (w/v) bovine serum albumin. All tissue samples were prepared for LC–MS/MS analysis as described above for plasma samples.
The LC–MS/MS system consisted of an API 3000 mass spectrometer (Sciex, Framingham, MA, USA) coupled to an UltiMate 3000 LC System (Dionex, Sunnyvale, CA, USA). Samples were separated using a ZORBAX Extend‐C18 column (Agilent, Santa Clara, CA, USA), preceded by a Securityguard C18 precolumn (Phenomenex, Utrecht, the Netherlands). Elution was done using a mixture of mobile phase A (0.1% formic acid in water (v/v)) and mobile phase B (methanol) in a 5 min gradient from 20% to 95% B, followed by 95% B that was maintained for 3 min and then re‐equilibrated at 20% B. Multiple reaction monitoring parameters were 490.2/383.1 (vemurafenib) and 496.2/389.1 (vemurafenib‐^13C6). System control and data analysis were done using ANALYST ® 1.6.2 software (AB Sciex, Foster City, CA, USA).

## CCCS(=O)(=O)Nc1ccc(F)c(C(=O)c2c[nH]c3ncc(-c4ccc(Cl)cc4)cc23)c1F [vemurafenib]
Intracranial A375 tumors
  PDGFRβ expression (immunohistochemistry): appeared to be diminished
  proliferation marker Ki‐67 (immunohistochemistry): similarly unaffected
Intracranial A375 tumors; n = 2 per group
  immunohistochemical staining of phospho‐S6 and phospho‐4EBP1: profoundly reduced
[1]; 4 h after third daily oral administration
  levels in tumor core of WT mice relative to Abcb1a/b;Abcg2−/− mice: approximately half
[1]; Abcb1a/b;Abcg2−/− mice and WT mice also receiving elacridar
  concentration in tumor regions, 10 days vs 5 days of treatment: even higher at the later time point
[1]; FVB nude, mouse, oral, 25 mg·kg^−1, WT mice, stated as very close to the total blood volume of the murine brain, read-out: tissue–plasma ratios in normal brain regions
  Kp at 4 h: ~0.02
[1]; WT mice, 4 h after third daily oral administration
  penetration in normal brain regions: negligible
[1]; tumor‐bearing Abcb1a/b;Abcg2−/− mice
  discrepancy in plasma concentration vs the previous pharmacokinetic experiment: twofold
[1]; tumor‐bearing WT mice that also received elacridar
  discrepancy in plasma concentration vs the previous pharmacokinetic experiment: no difference
[1]; tumor‐bearing WT mice, 25 mg·kg^−1
  plasma concentration, long‐term (10 days) vs short‐term (5 days) treated: considerably lower
[1]; tumor‐bearing WT mice, 25 mg·kg^−1, 4 h after third daily administration
  plasma concentration relative to the previous pharmacokinetic experiment (single dose, tumor‐free): around one‐fourth
